{"source": "patent US20060264460A1", "about": "(Wyeth, priority 2005, published 2006)"}
{"target": "T1, human Cot/Tpl2 kinase (Homo sapiens, UniProt P41279)", "T1 construct": "human Cot/Tpl2 kinase construct encoding residues 30-398; 6His (N); made in house; host or cells: Sf9 insect cells, baculovirus system (BD Biosciences)", "T1 sequence (P41279 30-398)": "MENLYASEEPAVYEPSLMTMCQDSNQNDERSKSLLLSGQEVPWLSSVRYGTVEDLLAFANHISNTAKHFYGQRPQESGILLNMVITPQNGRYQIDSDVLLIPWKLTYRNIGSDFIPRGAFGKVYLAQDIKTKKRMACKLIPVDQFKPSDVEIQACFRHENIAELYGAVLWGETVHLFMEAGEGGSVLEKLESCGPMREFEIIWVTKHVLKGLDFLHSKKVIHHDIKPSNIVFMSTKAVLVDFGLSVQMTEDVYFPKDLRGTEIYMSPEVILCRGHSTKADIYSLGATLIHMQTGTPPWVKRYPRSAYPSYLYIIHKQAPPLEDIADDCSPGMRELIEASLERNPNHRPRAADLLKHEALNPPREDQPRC", "test": "Tpl2/Cot kinase assay: GST-MEK1 phosphorylation detected by ELISA (DELFIA Eu)", "format": "biochemical", "conditions": "0.4 nM Tpl2, 35 nM GST-MEK1, 50 uM ATP, 1 h at 30° C.", "outline": "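Substrate phosphorylation (GST-MEK1 Ser217/221) quantified by DELFIA europium ELISA, yielding IC50 values. Reaction: 1 h at 30° C, pH 7.2 MOPS buffer, 50 uM ATP, 35 nM GST-MEK1, 0.4 nM monomeric His-Tpl2 purified from Sf9 cells, compounds at 1% final DMSO; stopped with EDTA.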", "units": {"IC50": "nM"}}
{"smiles": "N#Cc1cnc2c(Cl)cc(NCc3[nH]cnc3CCCO)cc2c1Nc1ccc(F)c(Cl)c1", "note": "[Example 205, 8-chloro-4-[(3-chloro-4-fluorophenyl)amino]-6-({[4-(3-hydroxypropyl)-1H-imidazol-5-yl]methyl}amino)quinoline-3-carbonitrile]", "IC50": 3.2}
{"smiles": "CN(C)C=Nc1cc(Cl)c2ncc(C#N)c(Nc3ccc(F)c(Cl)c3)c2c1", "note": "[Example 206, N′-{8-chloro-4-[(3-chloro-4-fluorophenyl)amino]-3-cyanoquinolin-6-yl}-N,N-dimethylimidoformamide]", "IC50": 7400}
{"smiles": "N#Cc1cnc2c(Cl)cc(NCCN=[N+]=[N-])cc2c1Nc1ccc(F)c(Cl)c1", "note": "[Example 210, 6-[(2-azidoethyl)amino]-8-chloro-4-[(3-chloro-4-fluorophenyl)amino]quinoline-3-carbonitrile]", "IC50": 1900}
{"smiles": "N#Cc1cnc2c(Cl)cc(NCCn3ccnn3)cc2c1Nc1ccc(F)c(Cl)c1", "note": "[Example 211, 8-chloro-4-[(3-chloro-4-fluorophenyl)amino]-6-{[2-(1H-1,2,3-triazol-1-yl)ethyl]amino}quinoline-3-carbonitrile]", "IC50": 350}
{"smiles": "N#Cc1cnc2c(Cl)cc(NCCn3ccnc3)cc2c1Nc1ccc(F)c(Cl)c1", "note": "[Example 212, 8-chloro-4-[(3-chloro-4-fluorophenyl)amino]-6-{[2-(1H-imidazol-1-yl)ethyl]amino}quinoline-3-carbonitrile]", "IC50": 400}
{"smiles": "N#Cc1cnc2c(Cl)cc(NCCn3cc(CCO)nn3)cc2c1Nc1ccc(F)c(Cl)c1", "note": "[Example 213, 8-chloro-4-[(3-chloro-4-fluorophenyl)amino]-6-({2-[4-(2-hydroxyethyl)-1H-1,2,3-triazol-1-yl]ethyl}amino)quinoline-3-carbonitrile]", "IC50": 1500}
{"smiles": "CC(C)c1nc[nH]c1CNc1cc(Cl)c2ncc(C#N)c(Nc3ccc(F)c(Cl)c3)c2c1", "note": "[Example 214, 8-chloro-4-[(3-chloro-4-fluorophenyl)amino]-6-{[(4-isopropyl-1H-imidazol-5-yl)methyl]amino}quinoline-3-carbonitrile]", "IC50": 16}
{"smiles": "N#Cc1cnc2c(Cl)cc(NCc3nnn4ccccc34)cc2c1Nc1ccc(F)c(Cl)c1", "note": "[Example 216, 6-([1,2,3]triazolo[1,5-a]pyridin-3-ylmethylamino)-8-chloro-4-(3-chloro-4-fluorophenylamino)quinoline-3-carbonitrile]", "IC50": 5.9}
{"smiles": "Cn1cc(CNc2cc(Cl)c3ncc(C#N)c(Nc4ccc(F)c(Cl)c4)c3c2)nn1", "note": "[Example 217, 8-chloro-4-[(3-chloro-4-fluorophenyl)amino]-6-{[(1-methyl-1H-1,2,3-triazol-4-yl)methyl]amino}quinoline-3-carbonitrile]", "IC50": 7.2}
{"smiles": "COCC(=O)NCCn1cc(CNc2cc(Br)c3ncc(C#N)c(Nc4ccc(F)c(Cl)c4)c3c2)nn1", "note": "[Example 218, N-(2-(4-((8-bromo-4-(3-chloro-4-fluorophenylamino)-3-cyanoquinolin-6-ylamino)methyl)-1H-1,2,3-triazol-1-yl)ethyl)-2-methoxyacetamide]", "IC50": 32}
{"smiles": "COCC(=O)NCCn1cc(CNc2cc(Cl)c3ncc(C#N)c(Nc4ccc(F)c(Cl)c4)c3c2)nn1", "note": "[Example 219, N-(2-(4-((8-chloro-4-(3-chloro-4-fluorophenylamino)-3-cyanoquinolin-6-ylamino)methyl)-1H-1,2,3-triazol-1-yl)ethyl)-2-methoxyacetamide]", "IC50": 65}
{"smiles": "Cn1ccnc1CNc1cc(Br)c2ncc(C#N)c(Nc3ccc(F)c(Cl)c3)c2c1", "note": "[Example 220, 8-bromo-4-[(3-chloro-4-fluorophenyl)amino]-6-{[(1-methyl-1H-imidazol-2-yl)methyl]amino}quinoline-3-carbonitrile]", "IC50": 26}
{"smiles": "Cn1cc(CNc2cc(Br)c3ncc(C#N)c(Nc4ccc(F)c(Cl)c4)c3c2)nn1", "note": "[Example 221, 8-bromo-4-(3-chloro-4-fluorophenylamino)-6-((1-methyl-1H-1,2,3-triazol-4-yl)methylamino)quinoline-3-carbonitrile]", "IC50": 28}
{"smiles": "N#Cc1cnc2c(Cl)cc(NCc3cn(CCN4CCOC4=O)nn3)cc2c1Nc1ccc(F)c(Cl)c1", "note": "[Example 222, 8-chloro-4-(3-chloro-4-fluorophenylamino)-6-((1-(2-(2-oxooxazolidin-3-yl)ethyl)-1H-1,2,3-triazol-4-yl)methylamino)quinoline-3-carbonitrile]", "IC50": 10}
{"smiles": "N#Cc1cnc2c(Br)cc(NCc3cn(CCN4CCOC4=O)nn3)cc2c1Nc1ccc(F)c(Cl)c1", "note": "[Example 223, 8-bromo-4-(3-chloro-4-fluorophenylamino)-6-((1-(2-(2-oxooxazolidin-3-yl)ethyl)-1H-1,2,3-triazol-4-yl)methylamino)quinoline-3-carbonitrile]", "IC50": 37}
{"smiles": "N#Cc1cnc2c(Cl)cc(NCc3cn(CS(=O)(=O)N4CCOCC4)nn3)cc2c1Nc1ccc(F)c(Cl)c1", "note": "[Example 224, 8-chloro-4-(3-chloro-4-fluorophenylamino)-6-((1-(morpholinosulfonylmethyl)-1H-1,2,3-triazol-4-yl)methylamino)quinoline-3-carbonitrile]", "IC50": 280}
{"smiles": "Cc1cc2ncc(C#N)c(Nc3ccc(F)c(Cl)c3)c2cc1NCc1cccnc1", "note": "[Example 225, 4-[(3-Chloro-4-fluorophenyl)amino]-7-methyl-6-[(pyridin-3-ylmethyl)amino]quinoline-3-carbonitrile]", "IC50": "> 40000"}
{"smiles": "Cc1cc2ncc(C#N)c(Nc3ccc(F)c(Cl)c3)c2cc1NCc1cnc[nH]1", "note": "[Example 226, 4-[(3-chloro-4-fluorophenyl)amino]-6-[(1H-imidazol-5-ylmethyl)amino]-7-methylquinoline-3-carbonitrile]", "IC50": "> 40000"}
{"smiles": "Cc1cc2ncc(C#N)c(Nc3ccc(F)c(Cl)c3)c2cc1NCCN1CCOCC1", "note": "[Example 227, 4-[(3-chloro-4-fluorophenyl)amino]-7-methyl-6-[(2-morpholin-4-ylethyl)amino]quinoline-3-carbonitrile]", "IC50": "> 40000"}
{"smiles": "N#Cc1cnc2ccc(NCc3c[nH]c(=O)[nH]c3=O)cc2c1Nc1ccc(F)c(Cl)c1", "note": "[Example 228, 4-[(3-chloro-4-fluorophenyl)amino]-6-{[(2,4-dioxo-1,2,3,4-tetrahydropyrimidin-5-yl)methyl]amino}quinoline-3-carbonitrile]", "IC50": 480}
{"smiles": "N#Cc1cnc2c(C(F)(F)F)cc(NCc3cnc[nH]3)cc2c1Nc1ccc(F)c(Cl)c1", "note": "[Example 229, 4-[(3-chloro-4-fluorophenyl)amino]-6-[(1H-imidazol-5-ylmethyl)amino]-8-(trifluoromethyl)quinoline-3-carbonitrile]", "IC50": 190}
{"smiles": "N#Cc1cnc2c(C(F)(F)F)cc(NCc3cccnc3)cc2c1Nc1ccc(F)c(Cl)c1", "note": "[Example 230, 4-[(3-chloro-4-fluorophenyl)amino]-6-[(pyridin-3-ylmethyl)amino]-8-(trifluoromethyl)quinoline-3-carbonitrile]", "IC50": "> 40000"}
{"smiles": "N#Cc1cnc2c(C(F)(F)F)cc(NCc3ccccn3)cc2c1Nc1ccc(F)c(Cl)c1", "note": "[Example 231, 4-[(3-chloro-4-fluorophenyl)amino]-6-[(pyridin-2-ylmethyl)amino]-8-(trifluoromethyl)quinoline-3-carbonitrile]", "IC50": 19700}
{"smiles": "N#Cc1cccc(CNc2cc(C(F)(F)F)c3ncc(C#N)c(Nc4ccc(F)c(Cl)c4)c3c2)c1", "note": "[Example 232, 4-[(3-chloro-4-fluorophenyl)amino]-6-[(3-cyanobenzyl)amino]-8-(trifluoromethyl)quinoline-3-carbonitrile]", "IC50": 24000}
